Reference: US6326395A, “Antifungal activity of dicationic molecules” (priority 1999, dated 2001)
In brackets after ≈: the same amount, converted by molar mass. Counter-ions that a name gives are not always drawn. Like-named read-outs stand apart in the source and are kept apart here.

Tests used:
[1] = test system: Candida albicans; assay: in vitro antifungal susceptibility testing (MIC, MFC; broth macrodilution), Tables 1-7; assay type: cell-based; details: for MIC: read-out: MIC80 (Minimum inhibitory concentration 80%); for MFC: read-out: MFC (Minimum fungicidal concentration)
Description: (§1) The fungi that were employed included two reference strains, C. neoformans var. neoformans H99 and C. albicans A39 and the following clinical isolates: (1) two strains of fluconazole-resistant C. neoformans var. neoformans (135.95 and 114.96); (2) two strains of C. neoformans var. gattii (119.95 and 114.95); (3) two strains of fluconazole-resistant C. albicans (102.96 and 103.96); and (4) one strain each of Torulopsis glabrata (142.91), Candida parapsilosis (111.96), Candida krusei (132.91), C. tropicalis (110.96), Candida lusitaniae (111.92), Fusarium solani (152.89), Aspergillus fumigatus (168.95), and Aspergillus flavus (112.96). Antifungal susceptibility testing was performed using an RPMI-1640 medium (Sigma Chemical Co., St. Louis, Mo.) with glutamine, without sodium bicarbonate, and buffered at pH 7.0 with 0.165 M morpholine-propanesulfonic acid (MOPS).
(§2) In vitro susceptibility testing in the form of Minimum Inhibitory Concentration (MIC) experiments were performed using the broth macrodilution method according to the recommendations of the National Committee for Clinical Laboratory Standards (see 1995 manual). The only difference compared to the standardized procedure was the choice of drug dilutions ranging from 100 to 0.09 μg/ml. Briefly, this procedure specifies an inoculum grown at 35° C. and adjusted to a concentration of 0.5-2.5×10^3 CFU/ml with an incubation of the test performed at 35° C. and reading at 48 hours for all yeasts except for C. neoformans which is interpreted at 72 hr.
(§3) Minimum Fungicidal Concentration (MFC) experiments were adapted from a method by McGinnis (McGinnis, M. R., (1980) "Susceptibility testing and bioassay procedure", p. 431, Academic Press, Inc., New York). Briefly, 10 μl aliquots from tubes with growth inhibition were plated onto Sabouraud agar plates.
(§4) The fungi that were employed included two quality control reference strains, C. neoformans var. neoformansH99 and C. albicans A39 and the following clinical isolates: (1) four strains of C. neoformans var. neoformans (167.95; 135.95; 114.96; and 133.95) of which three were fluconazole-resistant>64 μg/ml (135.95; 114.96; and 133.95); (2) two strains of C. neoformans var. gattii (119.95 and 114.95); (3) two strains of fluconazole-resistant>64 μg/ml C. albicans (102.96 and 103.96); and (4) one strain each of C. glabrata (142.91), Candida parapsilosis (111.96), Candida krusei (132.91), C. tropicalis (110.96), Candida lusitaniae (111.92), Fusarium solani (152.89), Aspergillus fumigatus (168.95), Rhizopus arrhizus (117.89), Paecilomyces lilacinus (137.90), and Aspergillus flavus (112.96). Antifungal susceptibility testing was performed using an RPMI-1640 medium (Sigma Chemical Co., St. Louis, Mo.) with glutamine, without sodium bicarbonate, and buffered at pH 7.0 with 0.165 M morpholinepropanesulfonic acid (MOPS).
as §3, with “p.431,” for “p. 431,”

[2] = test system: Cryptococcus neoformans; assay: as above; assay type: cell-based; details: for MIC: read-out: MIC80 (Minimum inhibitory concentration 80%); for MFC: read-out: MFC (Minimum fungicidal concentration)
Description: as §1, §2, §3, §4
as §3, with “p.431,” for “p. 431,”

[3] = Tables 2-7, three or fewer colonies
[4] = Table 1, three or fewer colonies

| MIC ([1]; 35° C., reading at 48 hours) [µg/mL] | MIC ([2]; 35° C., 72 hr) [µg/mL] | Structure (SMILES) | MFC ([1]; three or fewer colonies) [µg/mL] | MFC [2, 3] [µg/mL] | MFC [2, 4] [µg/mL] | MIC ([1]; 48 h) [µg/mL] | MIC ([2]; 72 h) [µg/mL] | MFC [1] [µg/mL] | MFC [2] [µg/mL] |
| --- | --- | --- | --- | --- | --- | --- | --- | --- | --- |
| 25 (≈ 59.2 µM) | 25 (≈ 59.2 µM) | Cc1cc(-c2nc3ccc(C(=N)N)cc3[nH]2)c(C)cc1-c1nc2ccc(C(=N)N)cc2[nH]1 [Compound 50] | 100 (≈ 237 µM) | 25 (≈ 59.2 µM) | – | – | – | – | – |
| 50 (≈ 139 µM) | 25 (≈ 69.7 µM) | c1cc(-c2nc3ccc(C4=NCCCN4)cc3[nH]2)ccc1C1=NCCCN1 [Compound 63] | 100 (≈ 279 µM) | 50 (≈ 139 µM) | – | – | – | – | – |
| 0.78 (≈ 2.06 µM) | 6.25 (≈ 16.5 µM) | c1cc(C2=NCCN2)ccc1OCCCCOc1ccc(C2=NCCN2)cc1 [Compound 14] | 1.56 (≈ 4.12 µM) | – | 12.5 (≈ 33 µM) | – | – | – | – |
| 3.12 (≈ 9.99 µM) | 6.25 (≈ 20 µM) | N=C(N)c1ccc(OCCCOc2ccc(C(=N)N)cc2)cc1 [Compound 3] | 3.12 (≈ 9.99 µM) | – | 6.25 (≈ 20 µM) | – | – | – | – |
| 0.39 (≈ 0.881 µM) | ≤ 0.09 | N=C(N)c1ccc(OCCCCOc2ccc(-c3nc4ccc(C(=N)N)cc4[nH]3)cc2)cc1 [Compound 65] | 3.12 (≈ 7.05 µM) | 1.56 (≈ 3.53 µM) | – | – | – | – | – |
| 1.56 | 1.56 | N=C(NC1CCCC1)c1ccc2nc(-c3ccc(-c4ccc(-c5ccc(-c6nc7ccc(C(=N)NC8CCCC8)cc7[nH]6)cc5)o4)cc3)[nH]c2c1 [Compound 54, 4,4'-Bis[2-(5-N-cyclopentylamidino)benzimidazoyl]-2,5-diphenylfuran hydrochloride] | 1.56 | 6.25 | – | – | – | – | – |
| 6.25 (≈ 17.5 µM) | 12.5 (≈ 35.1 µM) | N=C(N)c1ccc(OCCCCOc2ccc(C(=N)N)cc2N)c(N)c1 [Compound 13] | – | – | 50 (≈ 140 µM) | – | – | – | – |
| 50 (≈ 164 µM) | 3.12 (≈ 10.3 µM) | N=C(N)c1cccc(-c2ccc(-c3cccc(C(=N)N)c3)o2)c1 [Compound 38] | 100 (≈ 329 µM) | 25 (≈ 82.1 µM) | – | – | – | – | – |
| 25 (≈ 64.3 µM) | 6.25 (≈ 16.1 µM) | CC(C)NC(=N)c1ccc(-c2ccc(-c3ccc(C(=N)NC(C)C)cc3)o2)cc1 [Compound 25] | 50 (≈ 129 µM) | 50 (≈ 129 µM) | – | – | – | – | – |
| – | – | N=C(N)c1ccc2nc(Cc3nc4ccc(C(=N)N)cc4[nH]3)[nH]c2c1 [Compound 28] | – | – | – | > 100 | > 100 | – | – |
| > 100 | > 100 | CN(C)CCCNC(=O)c1ccc(-c2ccc(-c3ccc(C(=O)NCCCN(C)C)cc3)o2)cc1 [Compound 35] | – | – | – | – | – | – | – |
| 100 (≈ 359 µM) | 25 (≈ 89.8 µM) | N=C(N)c1ccc(-c2nc3ccc(C(=N)N)cc3[nH]2)cc1 [Compound 60] | > 100 | 50 (≈ 180 µM) | – | – | – | – | – |
| 0.78 | 0.78 | N=C(NC1CCCC1)c1ccc2nc(-c3ccc4oc(-c5nc6ccc(C(=N)NC7CCCC7)cc6[nH]5)cc4c3)[nH]c2c1 [Compound 56, 2,5-Bis[2-(5-N-cyclopentylamidino)benzimidazoyl]benzo[b]furan hydrochloride] | 0.78 | 0.78 | – | – | – | – | – |
| > 100 | 50 (≈ 129 µM) | COc1cc(C(=N)N)ccc1OCCCCOc1ccc(C(=N)N)cc1OC [Compound 12] | > 100 | – | > 100 | – | – | – | – |
| 0.39 | 0.19 | N=C(N)c1ccc2nc(-c3ccc4oc(-c5nc6ccc(C(=N)N)cc6[nH]5)cc4c3)[nH]c2c1 [Compound 55, 2,5-Bis[2-(5-amidino)benzimidazoyl]benzo[b]furan hydrochloride] | 0.78 | 0.19 | – | – | – | – | – |
| 1.56 | 0.39 | CC(C)NC(=N)c1ccc2nc(-c3ccc(CCc4ccc(-c5nc6ccc(C(=N)NC(C)C)cc6[nH]5)cc4)cc3)[nH]c2c1 [Compound 53, 4,4'-Bis[2-(5-N-isopropylamidino)benzimidazoyl]-1,2-diphenylethane hydrochloride] | 6.25 | 0.78 | – | – | – | – | – |
| – | – | CN1CCN(c2ccc3nc(-c4ccc5nc(-c6ccc(O)cc6)[nH]c5c4)[nH]c3c2)CC1 [Compound 58] | – | – | – | 25 (≈ 58.9 µM) | 100 (≈ 236 µM) | 50 (≈ 118 µM) | > 100 |
| > 100 | > 100 | CN(CCCNC(=O)c1ccc(-c2ccc(-c3ccc(C(=O)NCCCN(C)c4ccccc4)cc3)o2)cc1)c1ccccc1 [Compound 36] | – | – | – | – | – | – | – |
